Data reported in patent publication US6051206A, “Radiolabeled somatostatin-derived peptides for imaging and therapeutic uses” (Diatide, Inc, priority 1996, dated 2000).
Like-named read-outs stand apart in the source and are kept apart here. Bridge positions count the residues as written; N and C are the ends. Square brackets hold non-standard residues; d marks the D form. Peptide text beside a SMILES is read from it. * marks the point of attachment. X10 = NCCCC[C@H](NC(=O)[C@@H](N)CCCCNC(=O)C*)C(=O)N[C@@H](CS)C(N)=O; X2 = N=C(N)NCCC[C@H](NC(=O)[C@H](CS)NC(=O)CNC(=O)CNC(=O)C*)C(N)=O; X1 = NCCCC[C@H](NC(=O)[C@H](CS)NC(=O)CNC(=O)CNC(=O)C*)C(N)=O; NMeF = CN[C@@H](Cc1ccccc1)C(=O)O; hCys = N[C@@H](CCS)C(=O)O; Acm = CC(=O)NC*

How the values were obtained:
SSTR-expressing tumors = assay: Clinical trial: scintigraphic imaging of human patients bearing SSTR-expressing tumors with Tc-99m labeled P587; assay type: in vivo; settings: i.v., within 30 minutes of injection
Source text: In a clinical trial, scintigraphic imaging of human patients bearing SSTR-expressing tumors was achieved using the Tc-99m labeled P587 reagent.
A total of 10 patients, four females and six males ranging in age from 27 to 69 years, had been previously diagnosed with growth hormone-secreting pituitary adenoma (4 patients), melanoma (1 subject), medullary thyroid cancer (1 subject), small cell lung carcinoma (SCLC; 1 patient), non-Hodgkin's lymphoma (1 patient) or gastric carcinoid (1 patient). Each of these patients were administered Tc-99m labeled P587 at a dose of 10-22 mCi per 0.2-0.5 mg by intravenous injection. Scintigraphic imaging was them performed as described herein on each patient for 4 hours post-injection.
Gamma camera imaging is started simultaneously with injection. Anterior images were acquired as a dynamic study (10 sec image acquisitions) over the first 10 min, and then as static images at 1, 2, 3 and 4 h post-injection. Anterior images were acquired for 500,000 counts or 20 min (whichever is shorter), at approximately 10-20 min, and at approximately 1, 2, 3 and 4 h post-injection.

[1] = system: Somatostatin Receptor (SSTR)-expressing CA20948 rat pancreatic tumors; assay: Localization and in vivo biodistribution/imaging of Tc-99m labeled peptides in CA20948 tumor-bearing Lewis rats; settings: 90-minute biodistribution; for T/B (tumor/blood ratio) / T/M / % ID/g Tumor: 99mTc-labeled peptide, i.v.; for % ID/g Tumor: CA20948 tumor-bearing Lewis rats
Procedure: (§1) CA20948 rat pancreatic tumor cells, thawed from frozen harvested tumor brei, were implanted intramuscularly in a suspension of 0.05 to 0.1 mL/animal, into the right hind thigh of 6 week old Lewis rats. The tumors were allowed to grow to approximately 0.5 to 2 g, harvested, and tumor brei was used to implant a second, naive set of Lewis rats. Passaging in this fashion was repeated to generate successive generations of tumor-bearing animals. The tumor-bearing animals used for the in vivo studies were usually from the third to fifth passage and carried 0.2 to 2 g tumors.
(§2) For studies of the specificity of radiotracer localization in the tumors, selected animals were given an subcutaneous SSTR-blocking dose (4 mg/kg) of octreotide 30 minutes prior to injection of the radiotracer.
(§3) Third- to fifth-passage CA20948 tumor-bearing Lewis rats were restrained and injected intravenously via the dorsal tail vein with a dose of 0.15-0.20 mCi ^99m Tc-labeled peptide corresponding to 3 to 8 μg peptide in 0.2 to 0.4 mL.
(§4) At selected times, the animals were sacrificed by cervical dislocation and selected necropsy was performed. Harvested tissue samples were weighed and counted along with an aliquot of the injected dose in a gamma well-counter.

somatostatin receptor = target: T1, somatostatin receptor (Rattus norvegicus, UniProt P30680); assay: Inhibition of binding of {125I-Tyr11}somatostatin-14 to AR42J rat pancreatic tumor cell membranes; settings: uncomplexed peptide, {125I-Tyr11}somatostatin-14 0.5 nM
T1 construct: endogenous in cells; host or cells: AR42J rat pancreatic tumor cell line (membrane preparation)
Procedure: The rat pancreatic tumor cell line AR42J which expresses the somatostatin receptor was cultured in Dulbecco's minimal essential media (DMEM) supplemented with 10% fetal bovine serum (FBS) and 8 mM glutamine in a humdified 5% CO2 atmosphere at 37° C. in T-flasks. Harvested cells were homogenized in cold 50 mM Tris-HCl buffer (pH 7.4) and the homogenate then centrifuged at 39,000 g for 10 min at 4° C. Pellets were washed once with buffer and then resuspended in an ice-cold solution of 10 mM Tris-HCl (pH 7.4). Equal aliquots of this cell membrane preparation were incubated with {^125 I-Tyr^11 }somatostatin-14 (at a final concentration of 0.5 nM and 750,000 cpm/mL, at a specific activity of 2000 Ci/mmol, Amersham, Arlington Heights, Ill.) and peptide or peptide-rheniumcomplex at a final concentration of from 10^-11 M to 10^-6 M in a solution of 50 mM HEPES (pH 7.4) containing 1 % bovine serum albumin (BSA), 5 mM MgCl2, Trasylol (200,000 International Units), bacitracin (0.02 mg/mL) and phenylmethylsulfonylfluoride (0.02 mg/mL) for 25min at 30° C. Using a filtration manifold, this mixture was filtered through a polyethyleneimine-washed GC/F filter (Whatman, Maidstone, England), and the residue remaining on the filter washed thrice with 5 mL cold HEPES buffer. The filter and a sample of the filter washings were then counted in a gamma counter. To assess non-specific binding, the assay was performed in the presence of unlabeled somatostatin-14 at 200 nM. Data analysis including Hill plots of the data provided inhibition constants (see Bylund & Yamamura, "Methods of receptor binding", in Methods in Neurotransmitter Receptor Analysis, Yamamura et al., eds., Raven Press: New York, 1990).

[2] = system: Somatostatin Receptor (SSTR)-expressing CA20948 rat pancreatic tumors; settings: in vivo, iv
Procedure: as §1, §2, §3, §4

T1 sequence (P30680 whole entry): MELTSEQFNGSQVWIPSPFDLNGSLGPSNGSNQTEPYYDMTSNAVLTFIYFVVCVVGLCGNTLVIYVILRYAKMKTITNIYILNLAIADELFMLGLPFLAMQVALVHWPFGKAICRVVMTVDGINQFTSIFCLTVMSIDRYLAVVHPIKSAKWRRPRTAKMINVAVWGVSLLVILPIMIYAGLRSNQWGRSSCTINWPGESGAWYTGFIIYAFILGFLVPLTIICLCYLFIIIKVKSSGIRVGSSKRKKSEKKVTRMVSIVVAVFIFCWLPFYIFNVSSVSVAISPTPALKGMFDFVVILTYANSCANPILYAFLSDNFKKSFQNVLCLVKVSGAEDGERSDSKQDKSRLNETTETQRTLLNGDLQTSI

Molecule | Ki (somatostatin receptor) [nM] | T/B (tumor/blood ratio) [2] | T/M [2] | further results
CC(C)[C@@H]1NC(=O)[C@H](CCCCN)NC(=O)[C@@H](Cc2c[nH]c3ccccc23)NC(=O)[C@H](Cc2ccc(O)cc2)NC(=O)[C@H](Cc2ccccc2)N(C)C(=O)[C@H](CCSCC(=O)NCC(=O)NCC(=O)N[C@@H](CS)C(=O)N[C@@H](CCCCN)C(N)=O)NC1=O (99mTc complex, metal not drawn) [Peptide P587, cyclo(N-methyl)FYWD KV.Hcy.(CH2 CO.GGCK.amide)] (cyclo([NMeF]Y[dW]KV[hCys](X1))) | – | – | – | injected dose remaining in the circulation (SSTR-expressing tumors): less than 10%; tumor uptake and tumor/blood ratios (in words) [1]: very high; T/B (tumor/blood ratio) [1]: 6.0; T/M [1]: 33; % ID/g Tumor [1]: 3.4 % ID/g
CC(C)[C@@H]1NC(=O)[C@H](CCCCN)NC(=O)[C@@H](Cc2c[nH]c3ccccc23)NC(=O)[C@H](Cc2ccc(O)cc2)NC(=O)[C@H](Cc2ccccc2)N(C)C(=O)[C@H](CCSCC(=O)NCC(=O)NCC(=O)N[C@@H](CS)C(=O)N[C@@H](CCCNC(=N)N)C(N)=O)NC1=O (99mTc complex, metal not drawn) [Peptide P617, cyclo(N-methyl)FYWD KV.Hcy.(CH2 CO.GGCR.amide)] (cyclo([NMeF]Y[dW]KV[hCys](X2))) | – | – | – | tumor uptake and tumor/blood ratios (in words) [1]: very high; T/B (tumor/blood ratio) [1]: 9.4; T/M [1]: 36; % ID/g Tumor [1]: 6.7 % ID/g
CC(=O)NCSC[C@H](NC(=O)CNC(=O)[C@H](CSCNC(C)=O)NC(=O)[C@@H]1CSCC(=O)N[C@@H](Cc2ccccc2)C(=O)N[C@@H](Cc2ccccc2)C(=O)N[C@H](Cc2c[nH]c3ccccc23)C(=O)N[C@@H](CCCCN)C(=O)N[C@@H]([C@@H](C)O)C(=O)N[C@@H](Cc2ccccc2)C(=O)N1)C(N)=O [CH2 CO.FFWD KTFCCAcm GCAcm.amide] ({CH2CO}-FF[dW]KTFCC(Acm)GC(Acm)-NH2; thioether N-7) | 7.5 | – | – | –
C[C@@H](O)[C@@H]1NC(=O)[C@H](CCCCN)NC(=O)[C@@H](Cc2c[nH]c3ccccc23)NC(=O)[C@H](Cc2ccccc2)NC(=O)[C@H](Cc2ccccc2)NC(=O)CSC[C@@H](C(=O)NCC(=O)NCC(=O)N[C@@H](CS)C(N)=O)NC(=O)[C@H](Cc2ccccc2)NC1=O [CH2 CO.FFWD KTFCGGC.amide] ({CH2CO}-FF[dW]KTFCGGC-NH2; thioether N-7) | 9.4 | – | – | –
CC(C)[C@@H]1NC(=O)[C@H](CCCCN)NC(=O)[C@@H](Cc2c[nH]c3ccccc23)NC(=O)[C@H](Cc2ccc(O)cc2)NC(=O)[C@H](Cc2ccccc2)N(C)C(=O)[C@H](CCSCC(=O)NCCCC[C@H](N)C(=O)N[C@@H](CCCCN)C(=O)N[C@@H](CS)C(N)=O)NC1=O [cyclo.(N-Me)FYWD KV.Hcy(CH2 CO.(ε-K)KC.amide)] (cyclo([NMeF]Y[dW]KV[hCys](X10))) | 2.2 | – | – | –
KKKK.NalD.Cpa.YWD KTFT(ε-K)GCDDDD.amide [Peptide P550] | – | 0.91 | 7.4 | –
cyclo.(N--CH3)FYWD KV.Hcy(CH2 CO.(β-Dap)KCK.amide) [Peptide P829] | – | 13 | 49 | –
cyclo.(N--CH3)FYWD KV.Hcy(CH2 CO.(β-Dap)KCR.amide) [Peptide P832] | – | 13 | 37 | –
cyclo.(N-Me)FYWD KV.Hcy(CH2 CO.(ε-K)KC.amide) [Peptide P625] | – | 0.85 | 4.6 | –
